This is an account of results in a melting point compilation (Tetko et al.; mined from patent text by program, amines drawn as free bases though some values may be those of a salt).

SMILES strings stand for the structures.

As for `O=C(O)CSC1c2ccccc2COc2ccc(OCc3ccc4ccccc4n3)cc21` (stereo not drawn), the melting point is 174 to 179 °C. `Cc1ccc(NC(=O)N(C)Cc2cccc3c2C(=O)N(C2CCC(=O)NC2=O)C3=O)cc1Cl` (stereo not drawn) registered a melting point of 193 to 195 °C. Compound `CCOc1c(C)c(N2CCN(c3ccc(C)cc3)CC2)c(C)c2c1OC(C)(C)C2` came in with a melting point of 152 to 155 °C. For `COc1cccc(CNS(=O)(=O)Cc2ccc3[nH]cc(CC#N)c3c2)c1`, the melting point was 125 to 126 °C. `COc1cccc(CC(CS)C(=O)Nc2c[nH]c(C(=O)O)c2)c1` (stereo not drawn) returned a melting point of 153 to 158 °C. Turning to `O=C(NCC1Cc2cccc(-c3ccc(Cl)cc3Cl)c2O1)OCc1ccccc1` (stereo not drawn), the melting point lay within 87 to 89 °C. `Cc1cccc(C(=O)Nc2c[nH]nc2C(=O)NCC(C)(C)CO)n1` gave a melting point of 217 to 218 °C. The same measure for `CCCCCCCCCCCCCCc1ccc(OCC(CO)OCc2ccccc2)c(CCCCCC)c1` (stereo not drawn): 32 to 33 °C.

For the compound `CC(C)c1cccc(C(C)C)c1NC(=O)N(c1ccccc1)c1nnn(CCCCCCCC=O)n1`, the melting point is 104 to 106 °C. The same measure for `c1ccc(CCOc2c3c(nc4ccccc24)CCN(Cc2ccccc2)CC3)cc1`: below 20 °C; for `CC(C)(C)[Si](C)(C)Oc1ccc2c(ccc3c4ccc(O[Si](C)(C)C(C)(C)C)cc4oc(=O)c23)c1`: 154 to 156 °C; for `NCCNS(=O)(=O)c1cc(NC(=O)c2cnn3c(C(F)(F)F)cc(-c4ccc(C(F)(F)F)cc4)nc23)c(Cl)s1`: 195 °C. The compound `O=Cc1cc2cc3c(cc2nc1Cl)OCCO3` came in with a melting point of 222 to 224 °C. For the compound `Cn1cc(C2=C(c3cn(CCCNc4ccc([N+](=O)[O-])cn4)c4ccccc34)C(=O)NC2=O)c2ccccc21`, the melting point was in the range of 245 to 247 °C. For the compound `Cc1[nH]c(=O)c(C#N)cc1C(=O)c1ccncc1`, the melting point was above 305 °C. `C=CCCC(C#N)(C#N)Cc1ccc(OCC(F)(F)F)cc1` yielded a melting point of 58 °C.

As for `Fc1ccc(OCCCc2c[nH]cn2)cc1`, the melting point is 135 to 137 °C. Regarding `CC(O)c1sccc1S(=O)(=O)N(C)c1cccc2cc(-c3nccs3)[nH]c12` (stereo not drawn), the melting point was determined as 193 °C.

As for `COc1ccc(CCN2CCC(C3c4ccn(C)c4C=Cn4ncnc43)CC2)cc1` (stereo not drawn), the melting point worked out at 140 °C.

As to `CC(C)N1C(=O)NC(c2ccc3c(c2)CCO3)c2cc3c(cc21)OCO3` (stereo not drawn), the melting point was 183 to 185 °C.

In the case of `O=c1oc2c(c(O)c1Br)c(=O)n(Cc1ccccc1)c1ccccc21`, the melting point was 226 to 229 °C. For the compound `CO/N=C1\CCCC[C@@H]1NC(=O)c1cc(-c2ccc(Cl)cc2)c(O[C@@H](C)C(F)(F)F)cn1`, the melting point lay in the range of 123 to 125 °C. In turn, `COc1ccc(C(=O)Nc2ccccc2C(C)c2ccccn2)cc1` (stereo not drawn) showed a melting point of 125 to 126 °C.

In the case of `CCCC(=O)NCCc1cccc2ccc(SC)cc12`, the melting point was in the range of 55 to 57 °C. Consider `CC(=O)NC(C)CCC1CCN(c2nc3ccc(OCC4CC4)cc3o2)CC1` (stereo not drawn), for which the melting point fell in the range of 131 to 132 °C. As to `CC(C)(C)c1cc(CNn2ccnc2)cc(C(C)(C)C)c1O`, the melting point fell in the range of 171 to 174 °C. In turn, `O=C(CCc1c[nH]c2ccccc12)NCC1CNc2ccccc2O1` (stereo not drawn) registered a melting point of 145 to 146 °C. In turn, `Cc1ccc2c(c1)OC(C(F)(F)F)C(C(=O)O)=C2` (stereo not drawn) gave a melting point of 202 to 203 °C.

`O=C(O)CCCCNS(=O)(=O)c1ccc(N2CCCCCCC2)cc1` yielded a melting point of 149 to 150 °C. On to `CCCCCCCCCCCCCCCCCCNC(=O)c1cc(OC(C)=O)cc(OC(C)=O)c1`, for which the melting point is 99 to 101 °C. To `O=C(OCCCl)c1ccccc1CS(=O)(=O)Cl` belongs 66 to 67 °C; to `CSc1ccc(/C=C2/C(C)=C(CCCN(O)C(N)=O)c3cc(F)ccc32)cc1`, 145 to 147 °C. Regarding `CC(C)(C)OC(=O)N[C@@H](CC1CCCCC1)[C@H](O)c1ccccn1`, the melting point lay in the range of 84 to 85 °C. `COc1nc2ccccc2cc1NC(=O)N1CCN(c2cccc(O)c2)CC1` yielded a melting point of 190 to 191 °C. To `NS(=O)(=O)c1ccc(NN=C2C(=O)Nc3ccc(S(N)(=O)=O)cc32)cc1` belongs above 250 °C; to `CCCCCCCCCCCCNc1nccc(NCCCO)n1`, 58 to 59 °C; to `COc1ccc(Cl)c(CC#N)c1`, 62 to 65 °C.

Consider `COc1cc(-c2nc3ccccc3n2Cc2cccc(C)c2)cc(OC)c1OC`, for which the melting point was 78 °C.

On to `COC(=O)c1ccc(OCc2ccc(Cl)cc2)cc1OCc1ccccc1`, for which the melting point is 99 to 101 °C. Take `Cn1c(=O)n(CC2CO2)n(CC2CO2)c1=O` (stereo not drawn): the melting point was in the range of 115 to 116 °C. `Cc1ccc(I)cc1Cc1ccc(-c2ccc(F)cc2)s1` showed a melting point of 109 to 110 °C. Compound `COc1cccc(N(C)C(=S)Oc2ccc3ccccc3c2)n1` showed a melting point of 95.5 to 97 °C. Compound `CC(C)CN(CC(=O)O)S(=O)(=O)c1ccc(N2CCC(c3ccccc3)CC2)cc1` yielded a melting point of 140 to 143 °C.

In the case of `CC(=O)N1c2ccccc2C[C@H]1C(N)=O`, the melting point was above 260 °C. On to `Nc1ccccc1NC(=O)c1cc2cc(OCc3ccccn3)ccc2s1`, for which the melting point is 205 to 207 °C. The same measure for `CN(C)c1ccc(CN/C=C2\C(=O)NC(=O)c3ccc(I)cc32)cc1O`: 198 to 199 °C; for `CNC(=O)N(Cc1ccc(OCCc2nc(-c3ccccc3)oc2C)cc1)OC(=O)OC`: 134 to 135 °C; for `N#Cc1cc(F)c(-n2nc(C(F)(F)F)n(C(F)F)c2=O)cc1F`: 68 °C. To `CC1(C)c2cc(O)ccc2OC1CO` (stereo not drawn) belongs 79 to 80 °C; to `CCc1cnn(CC(=O)O)c1OCCCc1cn(-c2ccc(C(F)(F)F)cn2)nc1C(C)C`, 111 to 112 °C.

Regarding `CC(=O)c1ccccc1OC1SCC(O)C(O)C1O` (stereo not drawn), the melting point was in the range of 102 to 105 °C.

As for `N#CCOc1ccc2cc(-c3cnc(Cc4ccc5ccccc5c4)o3)ccc2c1`, the melting point lay in the range of 155 to 158 °C.

`O=C1c2c(-c3ccccc3)noc2CCC1CCCN1CCOCC1` (stereo not drawn): the melting point fell in the range of 86 to 88.5 °C. Consider `O=C(CCCOc1cccc(CN2CCCCC2)c1)Nc1nc(CCc2ccccc2)n[nH]1`, for which the melting point is 192 to 193 °C. For the compound `COc1ccc(C(=O)c2c(N)sc3c2CCCC3)c2ccccc12`, the melting point was 227 to 229 °C. `Clc1cccc(C(c2ccnc3ccccc23)n2cnnc2)c1` (stereo not drawn) returned a melting point of 203 °C. `Oc1cc(O)c2ccccc2n1`: the melting point was 350 to 355 °C. The compound `CC(C)C1(c2ccccc2O)C(=O)N(C)c2ccccc21` (stereo not drawn) displayed a melting point of 172 to 174 °C. `O=C(c1cccs1)c1cnn2c(-c3cccc(NC(=O)C4CCNCC4)c3)ccnc12`: the melting point fell in the range of 159 to 161 °C. `CCOC(=O)C1=C(NC(=O)Nc2cc(C(=O)OC(C)C)c(Br)cc2Br)CCC1` came in with a melting point of 157 to 158 °C. With `O=c1c2c(oc3cc(OCCN4CCOCC4)ccc13)C(=Cc1ccccc1)CC2`, the melting point fell in the range of 167 to 169 °C. `O=C(O)c1cnc2c(F)c(F)ccc2c1` had a melting point of 275 °C. `Nc1ccccc1NC(=O)c1ccc(COC(=O)NCc2cccnc2)cc1` gave a melting point of 139 to 141 °C.

As usually defined, the melting point is the temperature of the solid-liquid transition.
